Results reported in the supplement of paper PMC11061612.

Assays:
Assay in all cases: combination Emax (second highest fraction inhibited in the dose matrix, 72 h); higher = more inhibition; extreme values may be limits of the assay
[1] = system: NCI-H82 (Small Cell Lung Carcinoma)
Outline: (§1)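 Bliss excess equals the observed combination effect minus the expected value EA + EB − EA·EB, where EA and EB are the effects of each agent alone. Combination Emax is the second-highest inhibition within the matrix. Inhibition was scaled from CellTiter-Glo 2.0 luminescence, with 0 set by vehicle wells and 1 by blank wells, after 72 hours of two-drug dosing of cells plated in 1536-well plates.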

[2] = system: CaR-1 (Colorectal Carcinoma)
Outline: as §1

[3] = system: B-CPAP (Thyroid Gland Carcinoma)
Outline: as §1

[4] = system: TCCSUP (Bladder Carcinoma)
Outline: as §1

[5] = system: LU-135 (Small Cell Lung Carcinoma)
Outline: as §1

[6] = system: CCRF-CEM (T-Lymphoblastic Leukemia)
Outline: as §1

[7] = system: HO-1-N-1 (Oral Cavity Carcinoma)
Outline: as §1

[8] = system: EC-GI-10 (Esophageal Squamous Cell Carcinoma)
Outline: as §1

[9] = system: HuP-T4 (Pancreatic Carcinoma)
Outline: as §1

AGS (Gastric Carcinoma) = system: AGS (Gastric Carcinoma)
Outline: as §1

[10] = system: NCI-H2085 (Non-Small Cell Lung Carcinoma)
Outline: as §1

[11] = system: TE-15 (Esophageal Squamous Cell Carcinoma)
Outline: as §1

[12] = system: DEL (T-Cell Non-Hodgkin's Lymphoma)
Outline: as §1

NB10 (Neuroblastoma) = system: NB10 (Neuroblastoma)
Outline: as §1

[13] = system: OVCA420 (Ovarian Carcinoma)
Outline: as §1

42-MG-BA (Glioblastoma) = system: 42-MG-BA (Glioblastoma)
Outline: as §1

[14] = system: UM-UC-3 (Bladder Carcinoma)
Outline: as §1

[15] = system: RC-K8 (B-Cell Non-Hodgkin's Lymphoma)
Outline: as §1

[16] = system: COLO-205 (Colorectal Carcinoma)
Outline: as §1

ES4 (Ewing's Sarcoma) = system: ES4 (Ewing's Sarcoma)
Outline: as §1

Structure (SMILES) | combination Emax [1] | combination Emax [2] | combination Emax [3] | combination Emax [4] | combination Emax [5] | combination Emax [6] | combination Emax [7] | combination Emax [8] | combination Emax [9] | combination Emax (AGS (Gastric Carcinoma)) | combination Emax [10] | combination Emax [11] | combination Emax [12] | combination Emax (NB10 (Neuroblastoma)) | combination Emax [13] | combination Emax (42-MG-BA (Glioblastoma)) | combination Emax [14] | combination Emax [15] | combination Emax [16] | combination Emax (ES4 (Ewing's Sarcoma))
Cc1nc(Nc2ncc(C(=O)Nc3c(C)cccc3Cl)s2)cc(N2CCN(CCO)CC2)n1 [Dasatinib] + CC(=O)Nc1cccc(-n2c(=O)n(C3CC3)c(=O)c3c(Nc4ccc(I)cc4F)n(C)c(=O)c(C)c32)c1 [Trametinib] (first compound max 2 µM, 7x7, partner max 1 µM) | 0.203 | 0.57 | 0.79 | 0.266 | 0.0891 | 0.149 | 0.939 | 0.503 | 0.486 | 1 | 0.82 | 0.782 | 0.433 | 0.658 | 0.903 | 0.971 | 0.685 | 0.124 | 0.728 | 0.215
COc1cc2ncnc(Nc3ccc(F)c(Cl)c3)c2cc1OCCCN1CCOCC1 [Gefitinib] + CC(C)n1c(=O)n(C)c2cnc3cc(F)c(-c4ccc(OCCCN5CCCCC5)nc4)cc3c21 [AZD1390] (first compound max 10 µM, 7x7, partner max 0.3 µM) | 0.386 | 0.227 | 0.108 | 0.114 | 0.129 | 0.054 | 0.568 | 0.642 | 0.178 | 0.133 | 0.225 | 0.762 | 0.187 | 0.0716 | 0.646 | 0.32 | 0.0932 | 0.105 | 0.135 | 0.3
CS(=O)(=O)CCNCc1ccc(-c2ccc3ncnc(Nc4ccc(OCc5cccc(F)c5)c(Cl)c4)c3c2)o1 [Lapatinib] + C[C@@H](Oc1cc(-c2cnn(C3CCNCC3)c2)cnc1N)c1c(Cl)ccc(F)c1Cl [Crizotinib] (first compound max 10 µM, 7x7, partner max 10 µM) | 0.936 | 0.858 | 0.984 | 0.508 | 0.94 | 0.881 | 0.979 | 0.986 | 0.915 | 0.976 | 0.673 | 0.906 | 1 | 0.796 | 0.964 | 0.767 | 0.307 | 0.622 | 0.939 | 0.928
CC(=O)c1c(C)c2cnc(Nc3ccc(N4CCNCC4)cn3)nc2n(C2CCCC2)c1=O [Palbociclib] + CC1(C)CCC(CN2CCN(c3ccc(C(=O)NS(=O)(=O)c4ccc(NCC5CCOCC5)c([N+](=O)[O-])c4)c(Oc4cnc5[nH]ccc5c4)c3)CC2)=C(c2ccc(Cl)cc2)C1 [Venetoclax] (first compound max 10 µM, 7x7, partner max 1 µM) | 0.634 | 0.0978 | 0.237 | 0.152 | 0.445 | 0.67 | 0.453 | 0.387 | 0.163 | 0.356 | 0.167 | 0.343 | 0.874 | 0.293 | 0.0625 | 0.27 | 0.175 | 0.506 | 0.492 | 0.21
CC(=O)c1c(C)c2cnc(Nc3ccc(N4CCNCC4)cn3)nc2n(C2CCCC2)c1=O [Palbociclib] + Cc1c2c(nn1C)CSCc1cc(n(C)n1)CSc1cc(c3ccccc3c1)OCCCc1c(C(=O)O)n(C)c3c-2c(Cl)ccc13 [AZD5991] (first compound max 10 µM, 7x7, partner max 1 µM) | 0.98 | 0.229 | 0.427 | 0.173 | 0.388 | 0.732 | 0.597 | 0.543 | 0.245 | 0.445 | 0.167 | 0.435 | 1 | 0.369 | 0.265 | 0.391 | 0.253 | 0.316 | 0.497 | 0.244
CC(=O)c1c(C)c2cnc(Nc3ccc(N4CCNCC4)cn3)nc2n(C2CCCC2)c1=O [Palbociclib] + Cn1cnc2c(F)c(Nc3ccc(Br)cc3Cl)c(C(=O)NOCCO)cc21 [Selumetinib] (first compound max 10 µM, 7x7, partner max 10 µM) | 0.627 | 0.307 | 0.356 | 0.187 | 0.352 | 0.624 | 0.745 | 0.493 | 0.349 | 0.906 | 0.231 | 0.657 | 0.92 | 0.579 | 0.51 | 0.232 | 0.246 | 0.459 | 0.788 | 0.224
COc1cccc(OCCCN)c1-c1cc(Nc2cnc(C#N)cn2)n[nH]1 [Prexasertib] + CCc1c2c(nc3ccc(O)cc13)-c1cc3c(c(=O)n1C2)COC(=O)[C@]3(O)CC [SN-38] (first compound max 1 µM, 7x7, partner max 0.3 µM) | 1 | 0.799 | 0.968 | 0.934 | 0.833 | 1 | 1 | 1 | 0.938 | 0.93 | 0.86 | 0.921 | 1 | 0.865 | 0.75 | 1 | 0.987 | 1 | 0.938 | 0.878
C[C@@H](c1ccc2nccn2c1)n1nnc2ncc(-c3cnn(C)c3)nc21 [Savolitinib] + CC1(C)CCC(CN2CCN(c3ccc(C(=O)NS(=O)(=O)c4ccc(NCC5CCOCC5)c([N+](=O)[O-])c4)c(Oc4cnc5[nH]ccc5c4)c3)CC2)=C(c2ccc(Cl)cc2)C1 [Venetoclax] (first compound max 1 µM, 7x7, partner max 1 µM) | 0.225 | 0.171 | 0.155 | 0.143 | 0.114 | 0.124 | 0.158 | 0.116 | 0.0793 | 0.0926 | 0.107 | 0.287 | 0.0701 | 0.149 | 0.0542 | 0.166 | 0.143 | 0.129 | 0.0209 | 0.113
C[C@@H](c1ccc2nccn2c1)n1nnc2ncc(-c3cnn(C)c3)nc21 [Savolitinib] + Cc1c2c(nn1C)CSCc1cc(n(C)n1)CSc1cc(c3ccccc3c1)OCCCc1c(C(=O)O)n(C)c3c-2c(Cl)ccc13 [AZD5991] (first compound max 1 µM, 7x7, partner max 1 µM) | 0.875 | 0.154 | 0.211 | 0.252 | 0.194 | 0.151 | 0.488 | 0.285 | 0.265 | 0.241 | 0.158 | 0.282 | 1 | 0.202 | 0.213 | 0.192 | 0.14 | 0.113 | 0.0758 | 0.117
Cn1cnc2c(F)c(Nc3ccc(Br)cc3Cl)c(C(=O)NOCCO)cc21 [Selumetinib] + C=CCn1c(=O)c2cnc(Nc3ccc(N4CCN(C)CC4)cc3)nc2n1-c1cccc(C(C)(C)O)n1 [AZD1775] (first compound max 10 µM, partner max 1 µM) | 0.855 | 0.288 | 0.472 | 0.429 | 0.583 | 0.996 | 0.718 | 0.919 | 0.396 | 0.932 | 0.271 | 0.74 | 1 | 0.712 | 0.508 | 0.282 | 0.268 | 0.72 | 0.85 | 0.433
Cn1cnc2c(F)c(Nc3ccc(Br)cc3Cl)c(C(=O)NOCCO)cc21 [Selumetinib] + CC(C)n1c(=O)n(C)c2cnc3cc(F)c(-c4ccc(OCCCN5CCCCC5)nc4)cc3c21 [AZD1390] (first compound max 10 µM, 7x7, partner max 0.3 µM) | 0.177 | 0.188 | 0.254 | 0.109 | 0.136 | 0.108 | 0.506 | 0.323 | 0.293 | 0.842 | 0.191 | 0.409 | 0.237 | 0.32 | 0.436 | 0.185 | 0.187 | 0.209 | 0.705 | 0.0668
Cn1cnc2c(F)c(Nc3ccc(Br)cc3Cl)c(C(=O)NOCCO)cc21 [Selumetinib] + CCN(CCO)CCCOc1ccc2c(Nc3cc(CC(=O)Nc4cccc(F)c4)[nH]n3)ncnc2c1 [AZD2811] (first compound max 10 µM, 7x7, partner max 1 µM) | 0.442 | 0.406 | 0.346 | 0.217 | 0.933 | 0.968 | 0.737 | 0.546 | 0.421 | 0.954 | 0.492 | 0.492 | 0.965 | 0.397 | 0.493 | 0.447 | 0.224 | 0.443 | 0.983 | 0.145
Cn1cnc2c(F)c(Nc3ccc(Br)cc3Cl)c(C(=O)NOCCO)cc21 [Selumetinib] + C[C@@H]1COCCN1C2=NC(=NC(=C2)C3(CC3)[S@](=N)(=O)C)C4=C5C=CNC5=NC=C4 [AZD6738] (first compound max 10 µM, 7x7, partner max 10 µM) | 0.756 | 0.395 | 0.421 | 0.546 | 0.753 | 0.963 | 0.763 | 0.647 | 0.568 | 0.986 | 0.35 | 0.834 | 1 | 0.916 | 0.562 | 0.53 | 0.312 | 0.87 | 0.76 | 0.864
